The target of data set [1] is T1, human CB2 receptor (Homo sapiens, UniProt P34972).
T1 construct: expressed in transfected cells; b94 says HEK for CB2
Kind of data set: CB2 receptor binding, [3H]CP55,940 displacement in membranes of transfected cells. The note with it: mean±SEM, read-out: CB2 Ki. The procedure: cLogP calculations. Absolute solubility determinations were not performed. Rather, cLogP calculations were performed using the CS ChemDraw Ultra software (Cambridge Soft Corporation, Cambridge, Mass.). Receptor Binding. HEK-293 cells stably expressing the human CB1 receptor were cultured in DMEM with 10% FBS and Chinese Hamster Ovary (CHO) cells stably expressing the human CB2 receptor were cultured in DMEM with 10% FCS. Cells were harvested by replacement of the media with cold phosphate-buffered saline containing 1 mM EDTA followed by centrifugation at 1000×g for 5 min at 4° C. The pellet was resuspended in 50 mM Tris-HCl containing 320 mM sucrose, 2 mM EDTA and 5 mM MgCl2 (pH 7.4) (centrifugation buffer), then centrifuged at 1000×g for 10 min at 4° C., and the resulting supernatant was saved. This process was repeated twice. The supernatant fractions were combined and centrifuged at 40,000×g for 30 min at 4° C. The resulting P2 pellet was resuspended in assay buffer (50 mM Tris-HCl (pH 7.4), 3 mM MgCl2, 0.2 mM EGTA, and 100 mM NaCl) and protein was determined by the method of Bradford ENRfu(Bradford 1976). Membranes were stored at −80° C. until use. […] The assay was incubated at 30° C. for 1 hr and terminated by addition of ice cold 50 mM Tris-HCl plus BSA (1 mg/ml) (pH 7.4) followed by filtration under vacuum through Whatman GF/B glass fiber filters with 3 washes with cold Tris buffer. Bound radioactivity was determined by liquid scintillation spectrophotometry at 50% efficiency after extraction by shaking samples for 30-60 min with Budget-Solve scintillation fluid. Data are reported as the mean±SEM of three experiments, each performed in triplicate. Ki values were calculated from displacement data using EBDA (Equilibrium Binding Data Analysis; BIOSOFT, Milltown, N.J.). [^35S]GTPγS Binding Assays. Concentration-effect curves were generated by incubating membranes (10 μg prepared from CB1 expressing cells as described above) in assay buffer containing BSA (1 mg/ml) with various concentrations of test compounds in the presence of 20 μM GDP and 0.1 nM [^35S]GTPγS in a 1 ml total volume. […] Basal binding was assessed in the absence of agonist, and nonspecific binding was measured in the presence of 10 μM GTPγS. The reaction was incubated for 90 min at 30° C. and terminated by filtration under vacuum through Whatman GF/B glass fiber filters with 3 washes with cold (4° C.) Tris buffer (50 mM Tris-HCl, pH 7.4). Bound radioactivity was determined by liquid scintillation spectrophotometry at 95% efficiency after extraction overnight in ScintiSafe Econo 1 scintillation fluid. Data are reported as mean±SEM of three experiments, each performed in triplicate. Nonlinear regression analysis was conducted by iterative fitting using JMP (SAS for Macintosh). Net-stimulated [^35S]GTPγS binding is defined as [^35S]GTPγS binding in the presence of drug minus basal and percent stimulation is expressed as (net stimulated [^35S]GTPγS binding/basal)×100%. Behavioral Evaluations. All animals were allowed to acclimate to the observation room overnight. Behavioral effects were assessed in the tetrad model in order to measure potency in producing antinociception, catalepsy, hypothermia, and hypomobility. The baselines for tail-flick latency (2-4 seconds) and rectal temperature were determined prior to i.v. injections. Baseline rectal temperatures were measured using a telethermometer and a thermometer probe inserted to 25 mm (Yellow Springs Instrument Co., Yellow Springs, Ohio). The mice were then given either an i.v. i.c.v. injection of the analog. The mice were placed in individual photocell activity chambers 5 min later. Spontaneous activity was monitored for 10 min in a Digiscan Animal Activity Monitor (Omnitech Electronice, Inc., Columbus, Ohio) as measured by the number of interruptions of 16 photocell beams per chamber. The total number of beam interruptions during the 10-min period was determined and presented as total counts.

Data set [2] deals with mice. Kind of data set: Tail-flick antinociception (T.F.), mouse tetrad. In kind it is in vivo. Conditions: for ED50: Mus musculus, iv, mice, i.v.; for Analgesia in the tail-flick procedure: oral 10 mg/kg.
The test system of data set [3] is mice. Kind of data set: Rectal temperature (R.T.), mouse tetrad. In kind it is in vivo. Conditions: Mus musculus, iv.
Data set [4] has as its system mice. Kind of data set: Relative immobility (R.I.), ring-immobility test, mouse tetrad. The data set is classed as in vivo. Conditions: Mus musculus, iv.
In data set [5] the test system is mice. Kind of data set: Tetrad model, all four behavioral measures together (time course, oral and i.c.v. administration). The data set is classed as in vivo, mouse. The note with it: for Time course of effects following oral administration / Potency following oral administration (four tests): 10 mg/kg; for Time course of effects following oral administration: different time points before testing; for In vivo potency relative to Δ^9-THC (times more potent): i.v., 1:1:18 vehicle; for Potency following oral administration (four tests): 30 minutes before the start of testing.

Data set [6] can be described thus: Stability in buffer, plasma and microsomal enzymes.
The mark [7] stands for this setting: figure legends, vehicle 1:1:18 ethanol:emulphor:saline, read-out: ED50 after i.v. administration, tail-flick.
Setting [8] is: vehicle E:E:S (1:1:18), read-out: T.F. ED50 (antinociception in the tail-flick procedure).
Where [9] appears, read: figure legends, i.v., vehicle 1:1:18 ethanol:emulphor:saline, read-out: ED50 after i.v. administration, rectal temperature.
The mark [10] stands for this setting: vehicle E:E:S (1:1:18), read-out: R.T. ED50 (lowering rectal temperature).
The mark [11] stands for this setting: figure legends, i.v., vehicle 1:1:18 ethanol:emulphor:saline, read-out: ED50 after i.v. administration, relative immobility.
The mark [12] stands for this setting: vehicle E:E:S (1:1:18), read-out: R.I. ED50 (relative immobility).
[13] abbreviates: vehicle saline, read-out: T.F. ED50 (antinociception in the tail-flick procedure).
Where [14] appears, read: vehicle saline, read-out: R.T. ED50 (lowering rectal temperature).
Setting [15] is: vehicle saline, read-out: R.I. ED50 (relative immobility).

Where “and” joins values, the source holds several entries; their conditions need not be identical. Equal values may be shown once. Entries after “also recorded” stand apart in the source; their conditions may differ. Read-outs that look alike come from different tables or passages of the source. Some results are limits rather than exact numbers.

T1 sequence (P34972 whole entry): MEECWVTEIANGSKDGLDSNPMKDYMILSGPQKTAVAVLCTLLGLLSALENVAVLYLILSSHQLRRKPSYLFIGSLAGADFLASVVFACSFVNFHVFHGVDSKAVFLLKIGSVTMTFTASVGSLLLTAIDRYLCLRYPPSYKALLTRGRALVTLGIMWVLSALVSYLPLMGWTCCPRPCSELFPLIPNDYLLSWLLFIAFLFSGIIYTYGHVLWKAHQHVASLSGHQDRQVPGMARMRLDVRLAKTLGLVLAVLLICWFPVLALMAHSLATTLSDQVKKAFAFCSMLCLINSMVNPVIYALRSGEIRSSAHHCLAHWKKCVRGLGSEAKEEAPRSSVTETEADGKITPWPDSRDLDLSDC

By Ki is commonly meant a measure of affinity in units of concentration, obtained from inhibition or displacement. For `CC1=CC[C@@H]2[C@@H](C1)c1c(O)cc(C(C)(C)CCCCn3cncn3)cc1OC2(C)C` [O-2716, 1,2,4-Triazol-1-yl], the Ki in data set [1] (Tables 2b, 3b, 4a) was 0.92 ± 0.07 nM. Besides, the ED50 in data set [2] (setting [7]) was found to be 0.09 µmol/kg; in data set [2] (setting [8]), 0.09 µmol/kg; in data set [3] (setting [9]), 0.15 µmol/kg; in data set [3] (setting [10]) it was 0.15 µmol/kg; in data set [4] (setting [11]), 0.2 µmol/kg; in data set [4] (setting [12]), 0.2 µmol/kg. Further, the “Antinociception following oral administration” value in data set [2] (oral, maximum dose tested 10 mg/kg, 30 minutes before testing) is recorded as “failed to produce complete antinociception”. Also, the “Time course of effects after i.v. administration” value in data set [5] (FIG. 11, 0.1 mg/kg (0.24 μmoles/kg) i.v., vehicle 1:1:18) is “relatively short acting with most of the effects gone by 1 hour and no separation of effects”. Besides, the “Time course of effects following oral administration” value in data set [5] was “Maximal effects were observed at 30 min and only a slight decrease in activity was observed at 2 hrs; also recorded: effects lasted at least 2 hours”.
On to `CNC(=O)CCCCC(C)(C)c1cc(O)c2c(c1)OC(C)(C)[C@@H]1CC=C(C)C[C@@H]21` [O-2490, N-(Methyl)carboxamido], for which, in data set [1] (Table 1B), the Ki was 3.16 ± 0.75 nM. Besides, the results for the ED50 in data set [2] (setting [8]), in data set [3] (setting [10]) and in data set [4] (setting [12]) were 1.37 µmol/kg, greater than 2.5 µmol/kg and greater than 2.5 µmol/kg, respectively. Moreover, the “Maximal effects in hypothermia and catalepsy assays” value in data set [5] (dose 1 mg/kg that produced maximal effects in the other two measures) is “failed to produce maximal effects in hypothermia and catalepsy assays”.
For `CC1=CC[C@@H]2[C@@H](C1)c1c(O)cc(C(C)(C)CCCCn3ccnc3C)cc1OC2(C)C` [O-2651, 2-Methyl-imidazol-1-y1], in data set [1] (Tables 2b, 3b, 4a), the Ki came out at 1.22 ± 0.28 nM. Also, the ED50 in data set [2] (setting [13]) worked out at 1.75 µmol/kg; in data set [3] (setting [14]), 3.58 µmol/kg; in data set [4] (setting [15]), 4.29 µmol/kg. Moreover, in data set [5] (mice, administered in saline), the “In vivo potency, fold less potent than the hydrochloride salt of O-2545” value is recorded as “at least 10 fold”.
Turning to `CC1=CC[C@@H]2[C@@H](C1)c1c(O)cc(C(C)(C)CCCCC(N)=O)cc1OC2(C)C` [O-2352, Carboxamido], the inhibition constant (Ki) in data set [1] (Table 1B) is 0.84 ± 0.05 nM. The ED50 was determined as 0.84 µmol/kg in data set [2] (setting [8]), 1.72 µmol/kg in data set [3] (setting [10]) and 0.93 µmol/kg in data set [4] (setting [12]). For the same molecule, the “In vivo potency relative to Δ^9-THC (times more potent)” value in data set [5] (mice) is “slightly more potent than Δ^9-THC”.
Turning to `CC1=CC[C@@H]2[C@@H](C1)c1c(O)cc(C(C)(C)CCCCn3ccnc3)cc1OC2(C)C` [O-2545, Imidazol-1-yl], in data set [1] (Tables 2b, 3b, 4a), the Ki was 0.12 nM and 0.32 nM. For the same molecule, the ED50 turned out to be 0.16 µmol/kg in data set [2] (figure legends, saline, read-out: ED50 after i.v. administration, tail-flick response); 0.07 µmol/kg in data set [2] (setting [8]); 0.16 µmol/kg in data set [2] (setting [13]); 0.29 µmol/kg in data set [3] (figure legends, i.v., saline, read-out: ED50 after i.v. administration, rectal temperature); 0.04 µmol/kg in data set [3] (setting [10]); 0.29 µmol/kg in data set [3] (setting [14]). Also, the ED50 was found to be 0.14 µmol/kg in data set [4] (figure legends, i.v., saline, read-out: ED50 after i.v. administration, relative immobility); 0.13 µmol/kg in data set [4] (setting [12]); 0.14 µmol/kg in data set [4] (setting [15]). In data set [2] (at two hrs, mean±sem), the “Analgesia in the tail-flick procedure” value is 85±11%. In addition, the “Time course of effects after i.v. administration” value in data set [5] (FIG. 10, 0.24 μmoles/kg i.v., saline) is recorded as “At 1 hr all effects, except ring immobility, are present but only antinociception is present at 2 hours”. Further, the “Activity in the behavioral tests after i.c.v. injection” value in data set [5] (i.c.v., analogs dissolved in water, THC in emulphor:ethanol:saline, Table 5 not given) is given as “the most potent”. Also, the “In vivo potency relative to Δ^9-THC (times more potent)” value in data set [5] (mice) is reported as “at least 40 fold”. The “Potency following oral administration (four tests)” value in data set [5] was “fully effective in producing antinociception, hypothermia and ring immobility but was only a partial agonist in producing sedation”. The “Time course of effects following oral administration” value in data set [5] was “By four hrs the effects had largely dissipated; also recorded: produce the full range of effects up to 2 hours”. In addition, in data set [6], the “Stability in buffer, plasma and microsomal enzymes” value was “excellent stability in buffer and plasma and microsomal enzymes”.
Turning to `CC1=CC[C@@H]2[C@@H](C1)c1c(O)cc(C(C)(C)CCCCn3cccn3)cc1OC2(C)C` [O-2715, Pyrazol-1-yl], in data set [1] (Tables 2b, 3b, 4a), the inhibition constant Ki was determined as 1.52 ± 0.31 nM. The ED50 was found to be 0.06 µmol/kg in data set [2] (setting [7]); 0.06 µmol/kg in data set [2] (setting [8]); 0.14 µmol/kg in data set [3] (setting [9]); 0.14 µmol/kg in data set [3] (setting [10]); 0.07 µmol/kg in data set [4] (setting [11]); 0.07 µmol/kg in data set [4] (setting [12]). The “Analgesia in the tail-flick procedure” value in data set [2] (at one hr) is given as 21±6%. In addition, the “Time course of effects after i.v. administration” value in data set [5] (FIG. 12, 0.3 mg/kg (0.74 μmoles/kg) i.v., vehicle 1:1:18) is “duration of antinociception and hypothermia exceeded that of sedation and relative immobility”. The “Potency following oral administration (four tests)” value in data set [5] is “active in all tests”. Besides, the “Time course of effects following oral administration” value in data set [5] was “negligible effects at one hr; also recorded: effects that lasted only 1 hour”.

Source of the values: US20080064679A1, “Water Soluble Cannabinoids” (priority 2004, published 2008).
